Reference: patent US8258158B2 (Hoffmann-La Roche Inc., priority 2009, dated 2012)

Each compound was assayed against T1, human HSL (Homo sapiens, UniProt Q05469) (assay: Human hormone-sensitive lipase (HSL) enzyme inhibition assay (colorimetric, DMPT substrate)). Conditions: human full length HSL-His6; 2,3-dimercapto-1-propanol tributyrate substrate; 37° C., 20 minutes; read-out: HSL hum IC50.
T1 construct: overlapping PCR to generate a full length human HSL ORF with a 3′-His6 tag; His6 (C); made in house; host or cells: High 5 insect cells (baculovirus, pFast-BAC)
T1 sequence (Q05469 1-1076): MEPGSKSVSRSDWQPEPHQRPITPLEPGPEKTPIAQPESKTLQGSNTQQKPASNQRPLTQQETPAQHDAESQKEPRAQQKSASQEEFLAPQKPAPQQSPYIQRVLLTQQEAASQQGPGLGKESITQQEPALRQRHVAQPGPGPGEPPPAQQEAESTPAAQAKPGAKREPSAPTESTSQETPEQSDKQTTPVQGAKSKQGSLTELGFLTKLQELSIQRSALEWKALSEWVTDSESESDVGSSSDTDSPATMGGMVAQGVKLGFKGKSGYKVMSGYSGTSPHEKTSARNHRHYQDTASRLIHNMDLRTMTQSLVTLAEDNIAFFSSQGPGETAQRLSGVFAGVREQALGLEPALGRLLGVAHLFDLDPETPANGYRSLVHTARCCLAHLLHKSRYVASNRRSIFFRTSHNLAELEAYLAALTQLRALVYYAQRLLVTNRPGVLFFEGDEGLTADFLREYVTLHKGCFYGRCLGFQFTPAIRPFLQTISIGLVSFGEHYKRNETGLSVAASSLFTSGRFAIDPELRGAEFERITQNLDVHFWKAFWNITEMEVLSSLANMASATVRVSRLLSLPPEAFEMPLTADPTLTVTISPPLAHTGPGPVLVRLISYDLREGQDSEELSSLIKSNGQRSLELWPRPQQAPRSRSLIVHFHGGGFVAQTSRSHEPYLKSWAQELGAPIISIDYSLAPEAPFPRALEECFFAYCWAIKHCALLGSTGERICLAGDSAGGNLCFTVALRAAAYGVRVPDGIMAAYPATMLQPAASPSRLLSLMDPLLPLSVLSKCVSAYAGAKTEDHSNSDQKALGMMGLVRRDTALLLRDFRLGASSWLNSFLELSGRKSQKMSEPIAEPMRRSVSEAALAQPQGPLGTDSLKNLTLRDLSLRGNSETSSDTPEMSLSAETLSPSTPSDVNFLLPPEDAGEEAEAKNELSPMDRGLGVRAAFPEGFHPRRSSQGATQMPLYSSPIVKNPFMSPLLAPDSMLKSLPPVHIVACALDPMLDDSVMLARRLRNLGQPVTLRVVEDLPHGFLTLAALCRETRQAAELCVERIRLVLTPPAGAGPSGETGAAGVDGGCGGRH
Type: biochemical
Experimental: Production of Human Full Length Hormone Sensitive Lipase-His^6:
1) Cloning: cDNA was prepared from commercial human brain polyA+ RNA and used as a template in overlapping PCR to generate a full length human HSL ORF with a 3′-His6 tag. This full length insert was cloned into the pFast-BAC vector and the DNA-sequence of several single clones was verified. DNA from a correct full length clone with the 3′His6 tag was used to transform the E. coli strain DH10BAC. Resulting bacmid DNA was used to generate a titered baculovirus stock for protein generation. The sequence of the encoded HSL conforms to Swissprot entry Q05469, with the additional C-terminal His6-tag.
2) Protein purification: Culture: 5.5 L, High 5 cells expressing human full length HSL-His^6, 48 hr., containing 25 μM E-64. Cell count: […], 90% viable. Cells were thawed. On ice, cells were suspended in Base Buffer containing 10% glycerol, 25 mM Tris-Cl, 300 mM NaCl, 10 mM imidazole, 10 mM 2-mercaptoethanol, 2 μg pepstatin/ml, 2 μg leupeptin/ml, 2 μg antipain/ml, pH 8.0 at 4° C. in a final volume of 475 ml with 3.75×10^7 cells/ml. […] was done at 3×30 sec., Lubrol PX was added to 0.2% final concentration followed by stirring for 15 min. at 4° C. and centrifugation at 25 k×g, 60 min., 4° C. Soluble proteins were mixed with 60 ml of pre-washed and equilibrated Ni-NTA Agarose (Qiagen 30210) followed by tumbling end-over-end, 45 min., 4° C., centrifugation 1000 rpm 5 min and letting resin settle 5 min. Supernatant was removed, the resin washed in the centrifuge vessel using 5 volumes of Base Buffer containing 0.2% Lubrol PX. Centrifugation was done again, then the supernatant discarded. The resin was poured onto a 0.8 μm membrane in a disposable filter unit (Nalge 450-0080), and washed with 5 volumes of Base Buffer containing 0.2% Lubrol PX. It was then washed with 30 volumes of Base Buffer containing 60 mM imidazole pH 7.5 at 4° C. The protein was eluated with 5 volumes of 25 mM Tris-Cl, 300 mM NaCl, 200 mM imidazole, 10 mM 2-mercaptoethanol, pH 7.5 at 4° C. by tumbling resin with buffer end-over-end, 30 min., 4° C. The resin was captured on a 0.2 μm membrane disposable filter unit (Millipore SCGP U02 RE) and the eluate collected in the reservoir. The eluate was concentrated using a 30 k MWCO centrifugal filter device (Sartorius Vivascience Vivacell 100, VC1022), to 20 ml. It was then dialyzed overnight at 4° C., two times against 2 L of 10% glycerol, 25 mM Tris-Cl, 300 mM NaCl, 0.2 mM EDTA, 0.2 mM DTT, pH 7.5 at 4° C. The protein was filtered using a 0.22 μm disposable filter unit (Millipore SCGP00525). The protein concentration was calculated from absorbance at 280 nm, using 280=0.67 cm-1 mg-1. Yield was 235 mg, total. The protein was stored at −80° C.
Human Hormone-Sensitive Lipase (HSL) Enzyme Inhibition Assay:
HSL enzyme activity was measured by a colorimetric assay using 2,3-dimercapto-1-propanol tributyrate (Aldrich, St. Louis, Mo.) as a substrate. Typically, 1.5 mM 2,3-dimercapto-1-propanol tributyrate (DMPT) in 100 mM MOPS, pH 7.2, 0.2 mg/ml fatty acid-free BSA was prepared by sonication at 4° C. to homogenous suspension. Test compounds (2 mM stock in DMSO) were diluted 3 fold in series in DMSO. Compound solutions were diluted 24 fold in 1.5 mM DMPT containing solution and 18 ul per well was added to 384-well microplates (Corning Costar). Twelve microliters per well of human HSL (15 ug/ml) was added and the reaction mixture was incubated at 37° C. for 20 minutes. Six microliters of 12 mM dithio-bis-(2-nitrobenzoic acid) (DTNB) in DMSO plus 1.2% SDS and 0.6% Triton X-100 were added and the mixture was incubated at room temperature for 15 minutes. Product production was monitored by reading absorbance at 405 nm on an Envision Reader (PerkinElmer Life and Analytical Sciences, Shelton, Conn.).

Row | SMILES | IC50
1 | CCN(C(=O)C1CCN(S(=O)(=O)c2ccc(C)cc2)CC1)c1ccc(OC(C)C(F)(F)F)cc1 (racemic) [Example 4, (rac)-1-(Toluene-4-sulfonyl)-piperidine-4-carboxylic acid ethyl-[4-(2,2,2-trifluoro-1-methyl-ethoxy)-phenyl]-amide] | 3000 nM
2 | Cc1ccc(S(=O)(=O)N2CCC(C(=O)N(C)c3ccc(OC(C)C(F)(F)F)cc3)CC2)cc1 (racemic) [Example 5, (rac)-1-(Toluene-4-sulfonyl)-piperidine-4-carboxylic acid methyl-[4-(2,2,2-trifluoro-1-methyl-ethoxy)-phenyl]-amide] | 120 nM
3 | Cc1ccc(S(=O)(=O)N2CCC(C(=O)Nc3ccc(OC(C)C(F)(F)F)nc3)CC2)cc1 (racemic) [Example 6, (rac)-1-(Toluene-4-sulfonyl)-piperidine-4-carboxylic acid [6-(2,2,2-trifluoro-1-methyl-ethoxy)-pyridin-3-yl]-amide] | 120 nM
4 | CN(C(=O)[C@H]1CCN(S(=O)(=O)c2ccccc2Cl)[C@H](CO)C1)c1ccc(OC(F)(F)F)cc1 (racemic) [Example 11, (2S,4S)-1-(2-Chloro-benzenesulfonyl)-2-hydroxymethyl-piperidine-4-carboxylic acid methyl-(4-trifluoromethoxy-phenyl)-amide and (2R,4R)-1-(2-Chloro-benzenesulfonyl)-2-hydroxymethyl-piperidine-4-carboxylic acid methyl-(4-trifluoromethoxy-phenyl)-amide] | 80 nM
5 | COC[C@@H]1C[C@@H](C(=O)Nc2ccc(OC(F)(F)F)cc2)CCN1S(=O)(=O)c1ccc(C)cc1 (racemic) [Example 23, Racemic Mixture of Example 23a which is (2S,4S)-2-Methoxymethyl-1-(toluene-4-sulfonyl)-piperidine-4-carboxylic acid (4-trifluoromethoxy-phenyl)-amide and Example 23b which is (2R,4R)-2-Methoxymethyl-1-(toluene-4-sulfonyl)-piperidine-4-carboxylic acid (4-trifluoromethoxy-phenyl)-amide] | 110 nM
6 | CC(Oc1ccc(NC(=O)C2(CO)CCN(S(=O)(=O)c3ccccc3Cl)CC2)cc1)C(F)(F)F (racemic) [Example 24, 1-(2-Chloro-benzenesulfonyl)-4-hydroxymethyl-piperidine-4-carboxylic acid [4-(2,2,2-trifluoro-1-methyl-ethoxy)-phenyl]-amide] | 1140 nM
7 | Cc1ccc(S(=O)(=O)N2CCC(C(=O)Nc3ccc(OC(C)C(F)(F)F)cc3)CC2)cc1 (racemic) [Example 25, (rac)-1-(toluene-4-sulfonyl)-piperidine-4-carboxylic acid [4-(2,2,2-trifluoro-1-methyl-ethoxy)-phenyl]-amide] | 90 nM
8 | CC(Oc1ccc(NC(=O)C2(CO)CCN(S(=O)(=O)c3ccccc3)CC2)cc1)C(F)(F)F (racemic) [Example 27, (rac)-1-Benzenesulfonyl-4-hydroxymethyl-piperidine-4-carboxylic acid [4-(2,2,2-trifluoro-1-methyl-ethoxy)-phenyl]-amide] | 950 nM
9 | Cc1ccc(S(=O)(=O)N2CCC(F)(C(=O)Nc3ccc(OC(C)C(F)(F)F)cc3)CC2)cc1 (racemic) [Example 32, (rac-4-Fluoro-1-(toluene-4-sulfonyl)-piperidine-4-carboxylic acid [4-(2,2,2-trifluoro-1-methyl-ethoxy)-phenyl]-amide] | 920 nM
10 | Cc1ccc(S(=O)(=O)N2CCC(C(=O)Nc3ccc(OC(C)C4CC4)cc3)CC2)cc1 (racemic) [Example 34, (rac)-1-(Toluene-4-sulfonyl)-piperidine-4-carboxylic acid [4-(1-cyclopropyl-ethoxy)-phenyl]-amide] | 90 nM
11 | O=C(Nc1ccc(OC(F)(F)F)cc1)[C@H]1CCN(S(=O)(=O)c2ccccc2Cl)[C@H](CO)C1 (racemic) [Example 36, (2S,4S)-1-(2-Chloro-benzenesulfonyl)-2-hydroxymethyl-piperidine-4-carboxylic acid (4-trifluoromethoxy-phenyl)-amide and (2R,4R)-1-(2-Chloro-benzenesulfonyl)-2-hydroxymethyl-piperidine-4-carboxylic acid (4-trifluoromethoxy-phenyl)-amide] | 50 nM
12 | CC(Oc1ccc(NC(=O)C2CCN(S(=O)(=O)c3ccccc3Cl)CC2)cc1)C(F)(F)F (racemic) [Example 40, (rac)-1-(2-Chloro-benzenesulfonyl)-piperidine-4-carboxylic acid [4-(2,2,2-trifluoro-1-methyl-ethoxy)-phenyl]-amide] | 70 nM
13 | Cc1ccc(S(=O)(=O)N2CC[C@H](C(=O)Nc3ccc(OC(F)(F)F)cc3)C[C@H]2CO)cc1 (racemic) [Example 42, (2S,4S)-2-Hydroxymethyl-1-(toluene-4-sulfonyl)-piperidine-4-carboxylic acid (4-trifluoromethoxy-phenyl)-amide and (2R,4R)-2-Hydroxymethyl-1-(toluene-4-sulfonyl)-piperidine-4-carboxylic acid (4-trifluoromethoxy-phenyl)-amide] | 40 nM
14 | Cc1ccc(S(=O)(=O)N2CCC(C)(C(=O)Nc3ccc(OC(C)C(F)(F)F)cc3)CC2)cc1 (racemic) [Example 43, (rac)-4-Methyl-1-(toluene-4-sulfonyl)-piperidine-4-carboxylic acid [4-(2,2,2-trifluoro-1-methyl-ethoxy)-phenyl]-amide] | 810 nM
